Results on 15 molecules are retold here after US5045302A, “Ligands and cationic complexes thereof with technetium-99m” (priority 1988, dated 1991).

A short description of the data set: Rat biodistribution of Tc-99m complexes.

Take `COC(C)CCP(CCC(C)OC)CCP(CCC(C)OC)CCC(C)OC` (stereo not drawn) [Compound 15]: where the note is “2 min p.i.”, the Blood is reported as 12.2 % Injected dose/organ, the Heart is reported as 0.62 % Injected dose/organ, the “Heart/Blood Counts/Gram Ratio” value was found to be 0.70 and the “Heart/Liver Counts/Gram Ratio” value is listed as 1.01. Further, under “2 min p.i.”, the Liver came to 8.22 % Injected dose/organ. For the same molecule, where the note is “60 min p.i.”, the Blood was 0.67 % Injected dose/organ, the Heart turned out to be 0.51 % Injected dose/organ, the “Heart/Blood Counts/Gram Ratio” value stood at 9.4 and the “Heart/Liver Counts/Gram Ratio” value amounted to 2.48. The same molecule registered a Liver (60 min p.i.) of 2.24 % Injected dose/organ.
For `COC(C)(C)CCP(CCP(CCC(C)(C)OC)CCC(C)(C)OC)CCC(C)(C)OC` [Compound 16], where the note is “2 min p.i.”, the Blood is 11.4 % Injected dose/organ, the Heart amounted to 0.79 % Injected dose/organ, the “Heart/Blood Counts/Gram Ratio” value is on record as 1.01 and the “Heart/Liver Counts/Gram Ratio” value is recorded as 0.58. The molecule also had a Liver (2 min p.i.) of 19.2 % Injected dose/organ. For the same molecule, for the setting “60 min p.i.”, the Blood is reported as 1.58 % Injected dose/organ, the Heart is recorded as 0.54 % Injected dose/organ, the “Heart/Blood Counts/Gram Ratio” value turned out to be 4.69 and the “Heart/Liver Counts/Gram Ratio” value was determined as 0.96. Further, for the setting “60 min p.i.”, the Liver worked out at 7.71 % Injected dose/organ.
As for `COCC(COC)CP(CCP(CC(COC)COC)CC(COC)COC)CC(COC)COC` [Compound 17], for the setting “2 min p.i.”, the Blood was 5.86 % Injected dose/organ, the Heart is reported as 1.14 % Injected dose/organ, the “Heart/Blood Counts/Gram Ratio” value is 2.99 and the “Heart/Liver Counts/Gram Ratio” value is 0.92. The same molecule had a Liver (2 min p.i.) of 17.1 % Injected dose/organ. For the setting “60 min p.i.”, the Blood is given as 1.03 % Injected dose/organ, the Heart was 0.86 % Injected dose/organ, the “Heart/Blood Counts/Gram Ratio” value amounted to 13.9 and the “Heart/Liver Counts/Gram Ratio” value came out at 1.59. Further, the Liver (60 min p.i.) came out at 7.88 % Injected dose/organ.
Turning to `CCOCC(COCC)CP(CCP(CC(COCC)COCC)CC(COCC)COCC)CC(COCC)COCC` [Compound 18], under “2 min p.i.”, the Blood turned out to be 24.2 % Injected dose/organ, the Heart is recorded as 0.58 % Injected dose/organ, the “Heart/Blood Counts/Gram Ratio” value stood at 0.37 and the “Heart/Liver Counts/Gram Ratio” value was determined as 0.24. Under “2 min p.i.”, this molecule showed a Liver of 35.1 % Injected dose/organ. Also, for the setting “60 min p.i.”, the Blood is recorded as 5.78 % Injected dose/organ, the Heart came out at 0.41 % Injected dose/organ, the “Heart/Blood Counts/Gram Ratio” value stood at 1.0 and the “Heart/Liver Counts/Gram Ratio” value worked out at 0.14. The molecule further showed a Liver (60 min p.i.) of 36.0 % Injected dose/organ.
On to `COC(CCP(CCC(OC)OC)CCP(CCC(OC)OC)CCC(OC)OC)OC` [Compound 19], for which, where the note is “2 min p.i.”, the Blood was 18.8 % Injected dose/organ, the Heart came out at 0.46 % Injected dose/organ, the “Heart/Blood Counts/Gram Ratio” value is given as 0.37 and the “Heart/Liver Counts/Gram Ratio” value is recorded as 1.29. Moreover, the Liver (2 min p.i.) is reported as 3.27 % Injected dose/organ. For the same molecule, where the note is “60 min p.i.”, the Blood came out at 0.88 % Injected dose/organ, the Heart was 0.03 % Injected dose/organ, the “Heart/Blood Counts/Gram Ratio” value is 0.6 and the “Heart/Liver Counts/Gram Ratio” value is reported as 0.76. Moreover, the Liver (60 min p.i.) amounted to 0.67 % Injected dose/organ.
Consider `CCOC(CCP(CCC(OCC)OCC)CCP(CCC(OCC)OCC)CCC(OCC)OCC)OCC` [Compound 20], for which, where the note is “2 min p.i.”, the Blood amounted to 7.14 % Injected dose/organ, the Heart is 1.01 % Injected dose/organ, the “Heart/Blood Counts/Gram Ratio” value worked out at 1.95 and the “Heart/Liver Counts/Gram Ratio” value stood at 0.50. The molecule also had a Liver (2 min p.i.) of 24.50 % Injected dose/organ. Under “60 min p.i.”, the Blood stood at 1.52 % Injected dose/organ, the Heart was found to be 0.81 % Injected dose/organ, the “Heart/Blood Counts/Gram Ratio” value turned out to be 7.9 and the “Heart/Liver Counts/Gram Ratio” value is on record as 0.69. Also, for the setting “60 min p.i.”, the Liver turned out to be 14.90 % Injected dose/organ.
Take `C1OCC(CP(CCP(CC2COCO2)CC2COCO2)CC2COCO2)O1` (stereo not drawn) [Compound 21]: under “2 min p.i.”, the Blood amounted to 18.6 % Injected dose/organ, the Heart was determined as 0.37 % Injected dose/organ, the “Heart/Blood Counts/Gram Ratio” value was 0.33 and the “Heart/Liver Counts/Gram Ratio” value is listed as 0.58. The same molecule had a Liver (2 min p.i.) of 9.83 % Injected dose/organ. In addition, where the note is “60 min p.i.”, the Blood turned out to be 1.14 % Injected dose/organ, the Heart is on record as 0.04 % Injected dose/organ, the “Heart/Blood Counts/Gram Ratio” value is reported as 0.5 and the “Heart/Liver Counts/Gram Ratio” value is on record as 0.26. Under “60 min p.i.”, the Liver is reported as 1.95 % Injected dose/organ.
As to `CC1(C)OCC(CP(CCP(CC2COC(C)(C)O2)CC2COC(C)(C)O2)CC2COC(C)(C)O2)O1` (stereo not drawn) [Compound 22], where the note is “2 min p.i.”, the Blood is 10.4 % Injected dose/organ, the Heart is given as 0.99 % Injected dose/organ, the “Heart/Blood Counts/Gram Ratio” value worked out at 1.20 and the “Heart/Liver Counts/Gram Ratio” value is recorded as 0.79. Besides, under “2 min p.i.”, the Liver was 15.7 % Injected dose/organ. For the same molecule, under “60 min p.i.”, the Blood is listed as 1.23 % Injected dose/organ, the Heart turned out to be 1.00 % Injected dose/organ, the “Heart/Blood Counts/Gram Ratio” value stood at 12.3 and the “Heart/Liver Counts/Gram Ratio” value stood at 3.99. This molecule also returned a Liver (60 min p.i.) of 3.41 % Injected dose/organ.
For the molecule `C1COC(CP(CCP(CC2CCCO2)CC2CCCO2)CC2CCCO2)C1` (stereo not drawn) [Compound 24], under “2 min p.i.”, the Blood is 3.92 % Injected dose/organ, the Heart worked out at 1.82 % Injected dose/organ, the “Heart/Blood Counts/Gram Ratio” value was determined as 6.98 and the “Heart/Liver Counts/Gram Ratio” value was 1.74. This molecule also came in with a Liver (2 min p.i.) of 16.4 % Injected dose/organ. Under “60 min p.i.”, the Blood was 0.55 % Injected dose/organ, the Heart was determined as 1.42 % Injected dose/organ, the “Heart/Blood Counts/Gram Ratio” value turned out to be 39.7 and the “Heart/Liver Counts/Gram Ratio” value is listed as 2.62. Further, the Liver (60 min p.i.) came out at 8.56 % Injected dose/organ.
For `C1CC(CP(CCP(CC2CCOCC2)CC2CCOCC2)CC2CCOCC2)CCO1` [Compound 25], for the setting “2 min p.i.”, the Blood turned out to be 18.10 % Injected dose/organ, the Heart turned out to be 0.40 % Injected dose/organ, the “Heart/Blood Counts/Gram Ratio” value is 0.34 and the “Heart/Liver Counts/Gram Ratio” value was 0.94. For the setting “2 min p.i.”, this molecule registered a Liver of 5.74 % Injected dose/organ. Besides, for the setting “60 min p.i.”, the Blood was 1.51 % Injected dose/organ, the Heart stood at 0.04 % Injected dose/organ, the “Heart/Blood Counts/Gram Ratio” value was 0.41 and the “Heart/Liver Counts/Gram Ratio” value was 0.34. The molecule further registered a Liver (60 min p.i.) of 1.60 % Injected dose/organ.
As to `CCOCCP(CCOC)CCP(CCOC)CCOCC` (stereo not drawn) [Compound 28], for the setting “2 min p.i.”, the Blood stood at 9.0 % Injected dose/organ, the Heart is listed as 0.82 % Injected dose/organ, the “Heart/Blood Counts/Gram Ratio” value came out at 1.62 and the “Heart/Liver Counts/Gram Ratio” value turned out to be 1.28. The molecule also came in with a Liver (2 min p.i.) of 11.0 % Injected dose/organ. In addition, for the setting “60 min p.i.”, the Blood was 0.73 % Injected dose/organ, the Heart was determined as 0.69 % Injected dose/organ, the “Heart/Blood Counts/Gram Ratio” value amounted to 15.5 and the “Heart/Liver Counts/Gram Ratio” value was found to be 3.93. In addition, the Liver (60 min p.i.) came out at 2.94 % Injected dose/organ.
Take `CCCOCCP(CCOC)CCP(CCOC)CCOCCC` (stereo not drawn) [Compound 29]: where the note is “2 min p.i.”, the Blood was determined as 8.75 % Injected dose/organ, the Heart turned out to be 1.23 % Injected dose/organ, the “Heart/Blood Counts/Gram Ratio” value came out at 2.26 and the “Heart/Liver Counts/Gram Ratio” value was 0.95. Further, the Liver (2 min p.i.) is reported as 18.6 % Injected dose/organ. Further, under “60 min p.i.”, the Blood is 1.64 % Injected dose/organ, the Heart was 1.15 % Injected dose/organ, the “Heart/Blood Counts/Gram Ratio” value came out at 11.5 and the “Heart/Liver Counts/Gram Ratio” value turned out to be 1.40. The same molecule gave a Liver (60 min p.i.) of 11.5 % Injected dose/organ.
In the case of `CCOCCCP(CCOC)CCP(CCCOCC)CCOC` (stereo not drawn) [Compound 30], under “2 min p.i.”, the Blood amounted to 9.52 % Injected dose/organ, the Heart is listed as 0.73 % Injected dose/organ, the “Heart/Blood Counts/Gram Ratio” value came out at 1.14 and the “Heart/Liver Counts/Gram Ratio” value was 1.28. The same molecule returned a Liver (2 min p.i.) of 7.69 % Injected dose/organ. Also, for the setting “60 min p.i.”, the Blood worked out at 0.34 % Injected dose/organ, the Heart amounted to 0.70 % Injected dose/organ, the “Heart/Blood Counts/Gram Ratio” value came out at 27.4 and the “Heart/Liver Counts/Gram Ratio” value is given as 4.24. Where the note is “60 min p.i.”, this molecule had a Liver of 1.89 % Injected dose/organ.
In the case of `CCOCCP(CCOC(C)C)CCP(CCOCC)CCOC(C)C` (stereo not drawn) [Compound 31], where the note is “2 min p.i.”, the Blood is given as 6.88 % Injected dose/organ, the Heart was determined as 1.21 % Injected dose/organ, the “Heart/Blood Counts/Gram Ratio” value is reported as 3.05 and the “Heart/Liver Counts/Gram Ratio” value turned out to be 0.84. Under “2 min p.i.”, this molecule showed a Liver of 25.0 % Injected dose/organ. Under “60 min p.i.”, the Blood amounted to 1.22 % Injected dose/organ, the Heart was determined as 0.99 % Injected dose/organ, the “Heart/Blood Counts/Gram Ratio” value is 13.4 and the “Heart/Liver Counts/Gram Ratio” value is reported as 1.21. Besides, the Liver (60 min p.i.) is 12.4 % Injected dose/organ.
As to `CCOCCP(CCOCCF)CCP(CCOCC)CCOCCF` (stereo not drawn) [Compound 32], where the note is “2 min p.i.”, the Blood is 5.85 % Injected dose/organ, the Heart is recorded as 0.85 % Injected dose/organ, the “Heart/Blood Counts/Gram Ratio” value was 2.31 and the “Heart/Liver Counts/Gram Ratio” value turned out to be 1.27. This molecule returned a Liver (2 min p.i.) of 10.8 % Injected dose/organ. In addition, under “60 min p.i.”, the Blood was 0.38 % Injected dose/organ, the Heart was 0.81 % Injected dose/organ, the “Heart/Blood Counts/Gram Ratio” value was 33.2 and the “Heart/Liver Counts/Gram Ratio” value amounted to 7.46. The molecule further registered a Liver (60 min p.i.) of 1.78 % Injected dose/organ.
